Test results from US9415122B2, “Methods and compositions for the detection of cancer cells” (priority 2008, dated 2016).
Read-outs that look alike come from different tables or passages of the source. Where no end group is shown, it is not given here.

Legend:
[1] = Mouse health after multiple doses of Cy5 probes; type: in vivo; conditions: delivery of multiple doses
Description: (§1) Imaging experiments were performed at 10-11 days for CNS-1 and 4-8 weeks for LN-229, to allow for optimal tumor growth and cell dispersal in these two cell lines. […] Following a 90-min interval for clearance of unbound probe, the animals were sacrificed and the brains removed for whole-brain imaging using the MAESTRO FLEX In-Vivo Imaging System (Cambridge Research & Instrumentation, Inc. (CRi), Woburn, Mass.) Immediately after imaging, the brains were embedded in Tissue-Tek OCT compound (Sakura Finetek U.S.A., Inc. Torrance, Calif.), frozen in a dry ice/ethanol slurry and cryo-imaged.

[2] = test system: CNS-1-GFP intracranial tumors; conditions: for Cy5 fluorescence intensity of main tumors and dispersed cell populations: CNS-1 tumors, i.v. probe, 90 min clearance, normalized to background and tumor volume; for labeling of tumor (Cy5 signal) in words: intracranial glioma tumors, i.v. administration (FIG. 4)
Description: as §1
Frozen brains were alternately sectioned and imaged using the previously described Case Cryo-Imaging System at a section thickness of 15 μm and a resolution of 11×11×15 μm. Brightfield and fluorescence images were acquired for each of the brains using a low light digital camera (Retiga Exi, QImaging Inc., Canada), an epi-illumination fluorescent light source (Lumen200 PRO, Prior Scientific' Rockland, Mass.) and fluorescence filters for GFP (Exciter: HQ470/40x, Dichroic: Q495LP, Emitter: HQ500LP) or Cy5 (Exciter: FF01-628/40-25, Dichroic: FF660-Di01−25×36, Emitter: FF01-692/40-25; Semrock, Rochester, N.Y.). Single GFP expressing cells were readily detected with this system. […] Eight brains implanted with CNS-1-GFP cells and six brains with LN-229-GFP cells were analyzed.
Briefly, the main tumor mass was segmented using a fast 3-D region growth algorithm with intensity and gradient-based inclusion/exclusion criteria. Individual slice images were manually edited if necessary. Dispersed cells and clusters were detected by thresholding a Gaussian high pass filter image, discounting the masked main tumor mass. […] Light scattering in tissue might appear as a false positive signal in Cy5 volumes, However, we processed Cy5 volumes with a next-image processing algorithm, and used attenuation and scattering parameters for brain tissue that were previously described. Similar parameters were applied for both SBK2-Cy5 and scrambled-Cy5 volumes. To find co-labeled cells/clusters we applied a logical AND operator between the dispersed cell and Cy5 volumes. The lower limit for the blood vessel detection algorithm was ˜30 μm diameter. 3-D volumes of tumor, dispersed cells, Cy5 labeled cells, and vasculature were rendered using Amira software (Visage Imaging Inc., San Diego, Calif.), with modifications developed expressly for cryo-image data. Pseudo-colors were chosen to give the best contrast between the different data volumes.

[3] = test system: LN-229-GFP intracranial tumors; assay: In vivo labeling of LN-229-GFP intracranial tumors with Cy5 probes, 3-D cryo-imaging; parameters: species or system mouse; conditions: for Cy5 fluorescence of main tumors and dispersed cell populations: LN-229 tumors, i.v. probe, 90 min clearance
Text: Individual slice images were manually edited if necessary.
Total fluorescence signal was then normalized for tumor volume.

LN-229-GFP flank tumors = assay: Histologic probe labeling of LN-229-GFP flank tumor tissue sections; type: binding, human; conditions: probe 1 μM, 1 hour, room temperature
Description: Tumors were embedded in Tissue Freezing Medium (Electron Microscopy Sciences, Hatfield, Pa.) in a dry ice ethanol slurry and cryosectioned at 7-μm intervals.
For probe labeling, tissue sections were blocked with 2% goat serum in phosphate-buffered saline for 20 minutes at room temperature, then incubated with SBK2-Texas Red or scrambled Texas Red probes diluted to 1 μMin block buffer for 1 hour at room temperature in dark conditions. The sections were rinsed with phosphate-buffered saline, coverslipped with Citifluor Antifadent Mounting Medium (Electron Microscopy Sciences), and imaged immediately at ×20 magnification on a Leica DMI 6000 B inverted microscope (Leica Microsystems GmbH, Wetzlar, Germany) using a Retiga EXi camera (QImaging, Surrey, BC) and Metamorph software (MolecularDevices, Downington, Pa.). Images were acquired across the entire tissue using bright-field and fluorescence optics for fluorescein (GFP) and Texas Red (probe). The resultant images were tiled and flattened to form a single composite image using Metamorph software. A human specific Vimentin antibody (clone SP20; Thermo Fisher Scientific, Fremont, Calif.) was used to detect the implanted LN-229 tumor cells and imaged as above.

prostate tumors = assay: Labeling of prostate tumors with PTPμ probe (FIG. 3)
LN-229 flank tumors = conditions: 0.1 mmol/kg i.v.
Description: Cells were infected with lentivirus encoding green fluorescent protein (GFP), diluted in BD Matrigel Matrix (BD Biosciences, Franklin Lakes, N.J.), and injected into both flanks of female nude athymic mice (NCr-nu/+, NCr-nu/nu, 20-25 g each). Approximately 1.4×10^6 cells were implanted per flank. To correlate tumor position with GFP fluorescence, mice were imaged using the Maestro FLEX In Vivo Imaging System as previously described. Tumor area was approximately 0.5 cm^2, as measured from GFP fluorescence images acquired with the Maestro just before MRI.
The MRI study was performed using a Bruker Biospec 7-T MRI scanner (Bruker Corp, Billerica, Mass.) with a 72-mm diameter cylindrical radio frequency coil. Mice bearing LN-229 flank tumors were imaged at 2 to 5 weeks after tumor implant. […]
Image analysis was performed by using Bruker ParaVision 4.0 imaging software. Regions of interest were drawn over the whole tumor in the 2D imaging plane and average signal intensity was measured. Contrast-to-noise ratios (CNRs) in the tumor were calculated at each time point and averaged from different mice (n=3) using the following equation: CNR=(St−Sm)/(δn), where St and Sm denote the signal in tumor and adjacent thigh muscle and δn is the SD of noise estimated from the background air. The P values were calculated using a two-tailed Student's t test, assuming statistical significance at P<0.05. […]

Molecule: scrambled-Cy5: scrambled sequence of the SBK2 peptide (SEQ ID NO: 10) conjugated to Cy5 dye; control probe (GFTQPETGTDNDLWSVDNEK; also: Cy5 dye conjugate, attachment site not given here) [reference compound]
- effects on mouse health [1]: did not result in deleterious effects
- Cy5 fluorescence intensity of main tumors and dispersed cell populations [2]: 7.2+/−2.3
- labeling of tumor (Cy5 signal) in words [2]: did not label tumors
- labeling of tumor (Cy5 signal) in words ([2]; listed as scrambled probe): no significant signal above background
- Cy5 fluorescence of main tumors and dispersed cell populations [3]: 5.8

Molecule: SBK2-Texas Red: SBK2 peptide probe labeled with Texas Red (EGDDFNWEQVNTLTKPTSD; not fully specified (N-terminus); also: labeled with Texas Red, site not given here)
- labeling of flank tumor sections (LN-229-GFP flank tumors): labeled the entire tumor with greatest intensity in the tumor center
- recognition of prostate tumors (prostate tumors): recognized

Molecule: scrambled Texas Red: scrambled peptide probe labeled with Texas Red (GFTQPETGTDNDLWSVDNEK; not fully specified (N-terminus); also: labeled with Texas Red, site not given here) [reference compound]
- labeling of flank tumor sections (LN-229-GFP flank tumors): did not label the tumor

Molecule: CC(O)CN1CCN(CC(=O)[O-])CCN(CC(=O)[O-])CCN(CC(=O)[O-])CC1.[Gd+3] (centres unmarked) [ProHance, Gadoteridol, reference compound]
- pattern of tumor enhancement on T1-weighted images / heat maps (LN-229 flank tumors): enhanced contrast of the tumor edge compared with the tumor center

Molecule: scrambled Tris-(Gd-DOTA)3: scrambled SBK2 peptide (SEQ ID NO: 10) linked to Gd-DOTA; nontargeted control agent (CGFTQPETGTDNDLWSVDNEK; numbers in words are those of the source; also: Tris-(Gd-DOTA)3 conjugate, attachment site not given here) [reference compound]
- pattern of tumor enhancement on T1-weighted images / heat maps (LN-229 flank tumors): enhanced contrast of the tumor edge compared with the tumor center

Molecule: SBK2-Cy5: SBK2 peptide (SEQ ID NO: 5) with additional N-terminal glycine conjugated to Cy5 NHS ester dye (Cy5-GEGDDFNWEQVNTLTKPTSD)
- effects on mouse health [1]: did not result in deleterious effects
- Cy5 fluorescence intensity of main tumors and dispersed cell populations [2]: 73.5+/−16.2
- labeling of tumor (Cy5 signal) in words [2]: brightly labeled
- blood-brain barrier crossing ([2]; mouse, in vivo, iv): crosses the blood-brain barrier
- dispersed cell population labeled ([3]; LN-229-GFP intracranial tumors): greater than 99%
- labeling of main GFP-positive tumor in words ([3]; LN-229-GFP intracranial tumors): bright Cy5 fluorescence signal
- Cy5 fluorescence of main tumors and dispersed cell populations [3]: 114.7+/−25.9
